Experimental data as given in patent publication US9073830B2 (Hyundai Pharm Co., Ltd., priority 2011, dated 2015).

What was measured:
mouse 11β-HSD1 = molecular target: T1, mouse 11β-HSD1 (Mus musculus, UniProt P50172); assay: Enzyme activity analysis on mouse 11β-HSD1 (HTRF cortisol, liver microsomes); type: biochemical; conditions: second value of cell
T1 construct: 100 ug/ml human/mouse liver microsomes; from tissue; host or cells: mouse liver microsomes
Summary of the method: (§1)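 Cortisol generated by mouse or human liver microsome 11β-HSD1 during 2 h at 37° C., measured by HTRF competition (cryptate anti-cortisol antibody, d2-cortisol, 2 h room temperature) against a cortisol standard curve. IC50 from percent inhibition versus no-compound control.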

human 11β-HSD1 = molecular target: T2, human 11β-HSD1 (Homo sapiens, UniProt P28845); assay: Enzyme activity analysis on human 11β-HSD1 (HTRF cortisol, liver microsomes); type: biochemical; conditions: first value of cell
T2 construct: 100 ug/ml human/mouse liver microsomes; from tissue; host or cells: human liver microsomes
T2 sequence (P28845 whole entry): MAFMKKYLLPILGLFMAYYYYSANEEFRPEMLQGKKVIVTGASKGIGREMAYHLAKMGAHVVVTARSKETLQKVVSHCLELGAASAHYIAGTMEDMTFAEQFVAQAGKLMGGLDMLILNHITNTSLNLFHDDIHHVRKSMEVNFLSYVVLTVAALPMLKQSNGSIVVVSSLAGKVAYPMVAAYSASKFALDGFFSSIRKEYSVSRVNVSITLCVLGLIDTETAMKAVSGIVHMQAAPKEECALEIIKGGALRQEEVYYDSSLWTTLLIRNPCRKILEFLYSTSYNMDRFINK
Summary of the method: as §1

glucocorticoid receptor = molecular target: T3, glucocorticoid receptor (Homo sapiens, UniProt P04150); assay: Competitive binding of glucocorticoid receptor (LanthaScreen TR-FRET); conditions: final concentration 10 uM
T3 construct: 4× GR-LBD up to 4 nM, and 4× Tb anti-GST Antibody up to 8 nM; purchased Invitrogen PV6040
T3 sequence (P04150 524-758 limits assumed): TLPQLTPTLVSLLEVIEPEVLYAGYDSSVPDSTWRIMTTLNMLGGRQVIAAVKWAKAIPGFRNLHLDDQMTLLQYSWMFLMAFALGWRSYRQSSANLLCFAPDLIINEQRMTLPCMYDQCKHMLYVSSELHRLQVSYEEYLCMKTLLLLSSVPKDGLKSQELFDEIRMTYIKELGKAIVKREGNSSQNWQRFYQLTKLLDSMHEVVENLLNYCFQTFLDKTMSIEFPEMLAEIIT
Procedure: In order to confirm the selective inhibitory ability of 11β-HSD1 inhibitor, competitive binding between 11β-HSD1 inhibitor and glucocorticoid ligand was tested by using LanthaScreen TR-FRET Glucocorticoid Receptor Competitive Binding Assay (Invitrogen, PV6040). The test material was dissolved in DMSO (Sigma, 276855) up to a 100× concentration of its final concentration (10 uM), and then Complete Nuclear Receptor Buffer F (1× stabilizing peptide, 5 mM DTT, Nuclear Receptor Buffer F) was used to dilute the test material up to a concentration of 2×, 4× Fluormone™ GS1 Green up to 20 nM, 4× GR-LBD up to 4 nM, and 4× Tb anti-GST Antibody up to 8 nM.
In order to obtain 60 μl of a final product through a reaction, on a 96-well plate, 2× test material 30 μl, 4× Fluormone™ GS1 Green 15 μl, and 4× GR-LBD/Tb anti-GST Antibody 15 μl were mixed, and reacted for 1 hour. In a positive control group, instead of the test material, Dexamethasone (Sigma, D1756), known as a ligand for glucocorticoid receptor, was used, and in a maximum active control group, DMSO was used, instead of the test material. In a negative control group, instead of the test material, DMSO was used, instead of Fluormone™ GS1 Green, Complete Nuclear Receptor Buffer F was used. On a 384-well white plate, 20 μl each was plated. By using Time-Resolved program in Flexstation3, a fluorescence value was read after excitation ([…]), emission (515 nM/486 nM), Delay time (100 μs), and Integration time (1500 μs) were programmed. By using the obtained value, a value of 515 nM/486 nM was calculated, from which the value in the negative control group was subtracted. The degree of binding of the test material to glucocorticoid receptor of was calculated by the active value of the test material with respect to the active value (100%) in the maximum active control group.

human 11β-HSD2 = molecular target: T4, human 11β-HSD2 (Homo sapiens, UniProt P80365); assay: 11b-HSD2 inhibition test in transfected CHO cells; type: cell-based; conditions: at a concentration of 10 uM; CHO cells expressing human 11β-HSD2; read-out: 11b-HSD2 inhibitory effect
T4 construct: host or cells: CHO cells
T4 sequence (P80365 1-405): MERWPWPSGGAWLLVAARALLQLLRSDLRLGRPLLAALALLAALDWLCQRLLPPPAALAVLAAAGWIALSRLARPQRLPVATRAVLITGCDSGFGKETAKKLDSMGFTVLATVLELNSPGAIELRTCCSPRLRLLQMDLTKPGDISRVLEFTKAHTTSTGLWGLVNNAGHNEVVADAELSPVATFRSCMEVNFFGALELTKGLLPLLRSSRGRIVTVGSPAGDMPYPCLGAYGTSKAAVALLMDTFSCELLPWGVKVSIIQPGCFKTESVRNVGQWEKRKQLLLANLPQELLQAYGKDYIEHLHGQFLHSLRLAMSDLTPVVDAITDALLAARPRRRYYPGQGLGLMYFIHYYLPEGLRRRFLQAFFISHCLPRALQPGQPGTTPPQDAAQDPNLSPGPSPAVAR
Procedure: CHO cells were plated on a 96 well plate with RPMI (Wellgene) medium (phenol red free) containing 100 μl of 10% FBS, 100 ug/ml of penicillin and 100 ug/ml of streptomycin (2×10^4 cells/well). CHO cells were transfected with plasmid (Origene, SC122552) (pCMV6-XL5 vector) expressing human 11β-HSD2 by using FuGENE6 reagent (Promega, E2311). 24 hours after transfection, the transfected cells were added with 50 nM of cortisol (Sigma) in the presence or absence of the compound at various concentrations. On the following day (24 hours later), the supernatant liquid was obtained, and through HTRF (Cisbio, 62CO2PEB) analysis, a competitive amount of cortisol was measured.

T1 sequence (P50172 whole entry): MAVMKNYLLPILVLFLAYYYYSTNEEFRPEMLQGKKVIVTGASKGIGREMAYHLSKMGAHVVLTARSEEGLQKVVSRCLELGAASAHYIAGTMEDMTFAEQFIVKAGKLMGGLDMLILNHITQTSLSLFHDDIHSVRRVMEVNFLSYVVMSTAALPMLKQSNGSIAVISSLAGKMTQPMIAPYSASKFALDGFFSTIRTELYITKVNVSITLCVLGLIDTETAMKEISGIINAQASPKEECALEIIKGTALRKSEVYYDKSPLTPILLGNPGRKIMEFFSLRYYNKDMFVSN

| Structure (SMILES) | IC50 (mouse 11β-HSD1) | IC50 (human 11β-HSD1) | binding to glucocorticoid receptor (glucocorticoid receptor) | inhibition at 10 µM (human 11β-HSD2) |
| --- | --- | --- | --- | --- |
| CC(C)(NS(=O)(=O)c1ccccc1Cl)C(=O)NC1C2CC3CC1CC(C(N)=O)(C3)C2 (stereo not drawn) [compound 83, N-4-(2-(2-chlorophenylsulfonamido)-2-methylpropanamido)adamantane-1-carboxyamide] | 0.018 µM | 0.009 µM | did not bind to glucocorticoid receptor | – |
| CC(C)(NS(=O)(=O)c1ccccc1Br)C(=O)NC1C2CC3CC1CC(C(N)=O)(C3)C2 (stereo not drawn) [compound 84, N-4-(2-(2-bromophenylsulfonamido)-2-methylpropanamido)adamantane-1-carboxyamide] | 0.008 µM | 0.011 µM | did not bind to glucocorticoid receptor | – |
| CC(C)(NS(=O)(=O)c1cccc(Cl)c1Cl)C(=O)NC1C2CC3CC1CC(C(N)=O)(C3)C2 (stereo not drawn) [compound 87, N-4-(2-(2,3-dichlorophenylsulfonamido)-2-methylpropanamido)adamantane-1-carboxyamide] | 0.007 µM | 0.005 µM | did not bind to glucocorticoid receptor | – |
| CC(C)(NS(=O)(=O)c1ccccc1OC(F)(F)F)C(=O)NC1C2CC3CC1CC(C(N)=O)(C3)C2 (stereo not drawn) [compound 90, N-4-(2-(2-trifluoromethoxyphenylsulfonamido)-2-methylpropanamido)adamantane-1-carboxyamide] | 0.03 µM | 0.017 µM | did not bind to glucocorticoid receptor | – |
| Cc1ccc(S(=O)(=O)NC(C)(C)C(=O)NC2C3CC4CC2CC(C(N)=O)(C4)C3)cc1F (stereo not drawn) [compound 92, N-4-(2-(3-fluoro-4-methylphenylsulfonamido)-2-methylpropanamido)adamantane-1-carboxyamide] | 0.077 µM | 0.032 µM | did not bind to glucocorticoid receptor | ≤ 40% |
| Cc1c(Cl)cccc1S(=O)(=O)NC(C)(C)C(=O)NC1C2CC3CC1CC(C(N)=O)(C3)C2 (stereo not drawn) [compound 97, N-4-(2-(2-methyl-3-chlorophenylsulfonamido)-2-methylpropanamido)adamantane-1-carboxyamide] | 0.01 µM | 0.005 µM | did not bind to glucocorticoid receptor | – |
| Cc1ccccc1S(=O)(=O)NC(C)(C)C(=O)NC1C2CC3CC1CC(C(N)=O)(C3)C2 (stereo not drawn) [compound 104, N-4-(2-(2-methylphenylsulfonamido)-2-methylpropanamido)adamantane-1-carboxyamide] | 0.046 µM | 0.014 µM | did not bind to glucocorticoid receptor | – |
| CC(C)(NS(=O)(=O)c1cccc2cccnc12)C(=O)NC1C2CC3CC1CC(C(N)=O)(C3)C2 (stereo not drawn) [compound 105, N-4-(2-(quinoline-8-sulfonamido)-2-methylpropanamido)adamantane-1-carboxyamide] | 0.006 µM | 0.023 µM | – | ≤ 40% |
| CC(C)(NS(=O)(=O)c1ccccc1[N+](=O)[O-])C(=O)NC1C2CC3CC1CC(C(N)=O)(C3)C2 (stereo not drawn) [compound 106, N-4-(2-(2-nitrophenylsulfonamido)-2-methylpropanamido)adamantane-1-carboxyamide] | 0.04 µM | 0.041 µM | did not bind to glucocorticoid receptor | ≤ 40% |
| CC(C)(NS(=O)(=O)c1ccccc1C(F)(F)F)C(=O)NC1C2CC3CC1CC(C(N)=O)(C3)C2 (stereo not drawn) [compound 108, N-4-(2-(2-trifluoromethylphenylsulfonamido)-2-methylpropanamido)adamantane-1-carboxyamide] | 0.029 µM | 0.011 µM | did not bind to glucocorticoid receptor | ≤ 40% |
| CC(C)(NS(=O)(=O)c1c(Cl)cccc1Cl)C(=O)NC1C2CC3CC1CC(C(N)=O)(C3)C2 (stereo not drawn) [compound 121] | 0.004 µM | 0.009 µM | – | ≤ 40% |
| NC(=O)C12CC3CC(C1)C(NC(=O)C1(NS(=O)(=O)c4cccc5cccnc45)CCC1)C(C3)C2 (stereo not drawn) [compound 146, N-4-(1-(quinoline-8-sulfonamido)cyclobutanecarboxyamido)adamantane-1-carboxyamide] | 0.02 µM | 0.029 µM | – | ≤ 40% |
